Earlier results as cited in PMC12477080, “Polychlorinated biphenyls (PCBs) interact with drug metabolism in vivo” (Archives of Toxicology, 2025).

Tests used:
[1] = system: CYP2C9; set-up: method as in Makia et al. [2014]; details: cFos and JunD binding to CYP2C9 promoter; ref Makia et al. [2014]; cited from earlier work
[2] = system: CYP1A2; set-up: method as in Solan and Lavado [2023]; details: ref Solan and Lavado [2023]; cited from earlier work

Structure (SMILES)	effect on CYP2C9 expression [1]	effect on CYP1A2 activity [2]
CC(C)(C)c1cc(O)ccc1O [tBHQ, tert-butylhydroquinone]	induces CYP2C9 expression via AP-1 activation	
O=S(=O)(O)C(F)(F)C(F)(F)C(F)(F)C(F)(F)C(F)(F)C(F)(F)C(F)(F)C(F)(F)F [PFOS]		inhibits CYP1A2 activity
